From patent publication US20160206606A1, “TOPICAL COMPOSITIONS COMPRISING A THIAZOLIDINEDIONE” (Topokine Therapeutics, Inc., priority 2014, published 2016)
Where a name gives a salt, the structure may show the parent alone. Read-outs that look alike come from different tables or passages of the source.

Columns and labels:
[1] = Solubility by serial addition of solvent to a known mass of the TZD until full dissolution; format: physicochemical
Description: The solubility of rosiglitazone maleate and pioglitazone hydrochloride in various solvents was tested by a standard method, i.e., serial addition of solvent to a known mass of the TZD compound, until full dissolution was observed. Additional solubility results were obtained from the literature. […] This phenomenon occurred in formulations comprising water, as well as formulations lacking water. […] Next, the solubility of troglitazone in various solvents was tested by a standard method, i.e., serial addition of solvent to a known mass of troglitazone, until full dissolution was observed. Additional solubility results were obtained from the literature.

[2] = cited from earlier work; for solubility in ethanol: background statement, temperature not stated
[3] = solvent: 70% ethanol, 27% PG, 3% oleic acid
[4] = solvent: 70% ethanol, 30% propylene glycol (PG)

| Structure (SMILES) | Solubility at 25° C. ([1]; solvent: 65% ethanol, 25% PG, 7% water, 3% oleic acid) [mg/g] | Solubility at 25° C. [1, 3] [mg/g] | solubility in ethanol [2] | Solubility at 25° C. ([2]; solvent: Ethanol) | Solubility at 25° C. ([2]; solvent: Water) | increase of solubility in the vehicle on addition of oleic acid ([1]; about 3% w/w oleic acid added to ethanol-based vehicle) | increase of solubility in the vehicle on addition of oleic acid ([1]; about 3% w/w oleic acid added to isopropanol-based vehicle) | Solubility at 25° C. ([1]; solvent: 63% ethanol, 24% PG, 10% water, 3% oleic acid) [mg/g] | Solubility at 25° C. [1, 4] [mg/g] | Solubility at 25° C. ([1]; solvent: 70% isopropyl alcohol, 27% PG, 3% oleic acid) [mg/g] | Solubility at 25° C. ([1]; solvent: 70% isopropyl alcohol, 30% PG) [mg/g] |
| --- | --- | --- | --- | --- | --- | --- | --- | --- | --- | --- | --- |
| CCc1ccc(CCOc2ccc(CC3SC(=O)NC3=O)cc2)nc1 (stereo not drawn) [pioglitazone hydrochloride] | ~9 | ~9 | ~4000 µg/mL | 4 mg/mL | 0.05 mg/mL |  |  |  |  |  |  |
| CN(CCOc1ccc(CC2SC(=O)NC2=O)cc1)c1ccccn1 (stereo not drawn) [rosiglitazone maleate] |  | ~10 | about 0.25 mg/mL | 0.25 mg/mL |  | over 75 fold | about 3 fold | ~10 | 0.13 | 1.2 | 0.4 |
| Cc1c(C)c2c(c(C)c1O)CCC(C)(COc1ccc(CC3SC(=O)NC3=O)cc1)O2 (stereo not drawn) [troglitazone] |  | 0.6 |  | 0.3 mg/mL^b | 0.02 mg/mL^a |  |  |  | 0.3 |  |  |
